Reference: patent US7435815B2, “Sulfonylamino-acetic acid derivatives” (Actelion Pharmaceuticals Ltd., priority 2002, dated 2008)

Assays:
[1] = target: T1, human orexin-2 receptor (Homo sapiens, UniProt O43614); assay: Intracellular calcium measurements (FLIPR), orexin receptor antagonistic activity, OX2; format: cell-based; conditions: CHO cells expressing the human orexin-2 receptor, agonist 10 nM human orexin-A
T1 construct: expressed in transfected cells; host or cells: CHO cells (G418 selection)
T1 sequence (O43614 1-444): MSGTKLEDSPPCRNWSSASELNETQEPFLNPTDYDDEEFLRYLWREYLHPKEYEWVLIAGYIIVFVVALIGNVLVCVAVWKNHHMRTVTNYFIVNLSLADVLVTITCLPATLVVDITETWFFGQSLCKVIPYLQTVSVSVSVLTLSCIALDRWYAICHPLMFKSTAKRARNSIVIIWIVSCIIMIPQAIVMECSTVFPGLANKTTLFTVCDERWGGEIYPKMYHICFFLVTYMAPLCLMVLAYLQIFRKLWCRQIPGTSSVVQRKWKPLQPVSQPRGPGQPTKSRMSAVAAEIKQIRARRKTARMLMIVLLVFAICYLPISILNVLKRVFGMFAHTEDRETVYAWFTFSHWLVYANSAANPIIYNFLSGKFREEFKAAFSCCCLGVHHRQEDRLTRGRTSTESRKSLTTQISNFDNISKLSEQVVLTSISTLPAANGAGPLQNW
Description: (§1) The Orexin receptor antagonistic activity of the compounds of formula (I) was determined in accordance with the following experimental method.
(§2) Intracellular Calcium Measurements
(§3) Chinese hamster ovary (CHO) cells expressing the human orexin-1 receptor and the human orexin-2 receptor, respectively, were grown in culture medium (Ham F-12 with L-Glutamine) containing 300 μg/ml G418, 100 U/ml penicillin, 100 μg/ml streptomycin and 10% inactivated foetal calf serum (FCS).
(§4) The cells were seeded at 80,000 cells/well into 96-well black clear bottom sterile plates (Costar) which had been precoated with 1% gelatine in Hanks' Balanced Salt Solution (HBSS). All reagents were from Gibco BRL.
(§5) The seeded plates were incubated overnight at 37° C. in 5% CO2.
(§6) Human orexin-A as an agonist was prepared as 1 mM stock solution in methanol:water (1:1), diluted in HBSS containing 0.1% bovine serum albumin (BSA) and 2 mM HEPES for use in the assay at a final concentration of 10 nM.
(§7) Antagonists were prepared as 10 mM stock solution in DMSO, then diluted in 96-well plates, first in DMSO, then in HBSS containing 0.1% bovine serum albumin (BSA) and 2 mM HEPES.
(§8) On the day of the assay, 100 μl of loading medium (HBSS containing 1% FCS, 2 mM HEPES, 5 mM probenecid (Sigma) and 3 μM of the fluorescent calcium indicator fluo-3 AM (1 mM stock solution in DMSO with 10% pluronic acid) (Molecular Probes) was added to each well.
(§9) The 96-well plates were incubated for 60 min at 37° C. in 5% CO2. The loading solution was then aspirated and cells were washed 3 times with 200 μl HBSS containing 2.5 mM probenecid, 0.1% BSA, 2 mM HEPES. 100 μl of that same buffer was left in each well. Within the Fluorescent Imaging Plate Reader (FLIPR, Molecular Devices), antagonists were added to the plate in a volume of 50 μl, incubated for 20 min and finally 100 μl of agonist was added. Fluorescence was measured for each well at 1 second intervals, and the height of each fluorescence peak was compared to the height of the fluorescence peak induced by 10 nM orexin-A with buffer in place of antagonist.

[2] = target: T2, human orexin-1 receptor (Homo sapiens, UniProt O43613); assay: Intracellular calcium measurements (FLIPR), orexin receptor antagonistic activity, OX1; format: cell-based; conditions: CHO cells expressing the human orexin-1 receptor, agonist 10 nM human orexin-A
T2 construct: expressed in transfected cells; host or cells: CHO cells (G418 selection)
T2 sequence (O43613 1-425): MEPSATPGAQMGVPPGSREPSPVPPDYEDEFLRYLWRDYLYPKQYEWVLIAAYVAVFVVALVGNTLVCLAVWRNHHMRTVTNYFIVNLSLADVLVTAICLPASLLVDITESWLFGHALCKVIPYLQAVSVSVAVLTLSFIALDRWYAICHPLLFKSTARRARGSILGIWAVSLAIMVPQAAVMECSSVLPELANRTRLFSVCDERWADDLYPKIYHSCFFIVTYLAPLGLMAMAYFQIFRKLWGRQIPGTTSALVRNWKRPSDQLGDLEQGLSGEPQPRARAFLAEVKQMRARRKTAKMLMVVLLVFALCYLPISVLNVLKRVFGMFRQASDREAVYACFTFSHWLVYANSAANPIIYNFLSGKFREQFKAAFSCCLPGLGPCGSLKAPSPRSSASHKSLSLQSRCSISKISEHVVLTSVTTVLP
Description: as §1, §2, §3, §4, §5, §6, §7, §8, §9

Row | SMILES | IC50 [1] [nM] | IC50 [2] [nM]
1 | CCN(CCC#N)C(=O)CN(c1ccc(C)cc1)S(=O)(=O)c1ccc(C(C)(C)C)cc1 [Example 63, 2-[(4-tert-Butyl-benzenesulfonyl)-p-tolyl-amino]-N-(2-cyano-ethyl)-N-ethyl-acetamide] | 3 | > 10000
2 | CCN(Cc1ccccc1)C(=O)CN(c1ccccc1OC)S(=O)(=O)c1ncccc1C [Example 185, N-Benzyl-N-ethyl-2-[(2-methoxy-phenyl)-(3-methyl-pyridine-2-sulfonyl)-amino]-acetamide] | 4 | 4270
3 | CN(C)c1cccc(N(CC(=O)N(CCO)Cc2ccccn2)S(=O)(=O)c2ccc(C(C)(C)C)cc2)c1 [Example 111, 2-[(4-tert-Butyl-benzenesulfonyl)-(3-dimethylamino-phenyl)-amino]-N-(2-hydroxy-ethyl)-N-pyridin-2-ylmethyl-acetamide] | 5 | 331
4 | CCN(Cc1cccc(C)n1)C(=O)CN(c1ccc(C)cc1)S(=O)(=O)c1ccc(C(C)(C)C)cc1 [Example 71, 2-[(4-tert-Butyl-benzenesulfonyl)-p-tolyl-amino]-N-ethyl-N-(6-methyl-pyridin-2-ylmethyl)-acetamide] | 5 | 417
5 | CCN(Cc1ccccc1)C(=O)CN(c1ccc(OC)nc1)S(=O)(=O)c1ncccc1C [Example 207, N-Benzyl-N-ethyl-2-[(6-methoxy-pyridin-3-yl)-(3-methyl-pyridine-2-sulfonyl)-amino]-acetamide] | 4 | 5370
6 | CCN(Cc1ccccn1)C(=O)CN(c1ccc(C)cc1)S(=O)(=O)c1ccc(C(C)(C)C)cc1 [Example 66, 2-[(4-tert-Butyl-benzenesulfonyl)-p-tolyl-amino]-N-ethyl-N-pyridin-2-ylmethyl-acetamide] | 4 | 1030
7 | CCN(Cc1cccc(C)n1)C(=O)CN(c1ccc(OC)nc1)S(=O)(=O)c1ccccc1C [Example 160, N-Ethyl-2-[(6-methoxy-pyridin-3-yl)-(toluene-2-sulfonyl)-amino]-N-(6-methyl-pyridin-2-ylmethyl)-acetamide] | 2 | 8640
8 | CCN(Cc1cccc(C)n1)C(=O)CN(c1cccc(N(C)C)c1)S(=O)(=O)c1ccc(C(C)(C)C)cc1 [Example 87, 2-[(4-tert-Butyl-benzenesulfonyl)-(3-dimethylamino-phenyl)-amino]-N-ethyl-N-(6-methyl-pyridin-2-ylmethyl)-acetamide] | 8 | 56

Second part, the compound after the results:

Row | IC50 [1] [nM] | IC50 [2] [nM] | SMILES
9 | 4 | > 10000 | CCN(Cc1ccccn1)C(=O)CN(c1ccc(OC)nc1)S(=O)(=O)c1ccccc1C [Example 163, N-Ethyl-2-[(6-methoxy-pyridin-3-yl)-(toluene-2-sulfonyl)-amino]-N-pyridin-2-ylmethyl-acetamide]
10 | 5 | 898 | CCN(Cc1ccccc1)C(=O)CN(c1ccc(OC)nc1)S(=O)(=O)c1ccccc1C [Example 46, N-Benzyl-N-ethyl-2-[(6-methoxy-pyridin-3-yl)-(toluene-2-sulfonyl)-amino]-acetamide]
11 | 5 | 840 | CCN(Cc1cccc(O)c1)C(=O)CN(c1ccccc1OC)S(=O)(=O)c1ccccc1C [Example 158, N-Ethyl-N-(3-hydroxy-benzyl)-2-[(2-methoxy-phenyl)-(toluene-2-sulfonyl)-amino]-acetamide]
12 | 4 | 354 | CCN(Cc1ccccc1)C(=O)CN(c1ccccc1OC)S(=O)(=O)c1ccccc1C [Example 47, N-Benzyl-N-ethyl-2-[(2-methoxy-phenyl)-(toluene-2-sulfonyl)-amino]-acetamide]
